Laboratory results from ChEMBL document CHEMBL1201862, “PubChem BioAssay data set” (2004).
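Cultured in 96-well plates, cells were exposed to test compound for 48 hours across five concentrations. At the GI50, growth is halved.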 Calls of active or inactive are those of the source. No stated cut-off is given here; in the data, active = GI50 up to about 1.1 µM and inactive = higher.

Assays:
Assay in all cases: growth of human tumour cells (NCI), 48 h
UACC-62 = tested on: UACC-62
U-251 = tested on: U-251
SNB-19 = tested on: SNB-19
EKVX = tested on: EKVX
SK-MEL-5 = tested on: SK-MEL-5
OVCAR-8 = tested on: OVCAR-8
SK-MEL-28 = tested on: SK-MEL-28
IGROV-1 = tested on: IGROV-1
A498 = tested on: A498
RXF 393 = tested on: RXF 393
MDA-MB-231 = tested on: MDA-MB-231
SR = tested on: SR
Hs-578T = tested on: Hs-578T
HL-60 = tested on: HL-60
KM12 = tested on: KM12
NCI/ADR-RES = tested on: NCI/ADR-RES
A549 = tested on: A549
CAKI-1 = tested on: CAKI-1
M14 = tested on: M14
MOLT-4 = tested on: MOLT-4
SW-620 = tested on: SW-620
SF-295 = tested on: SF-295
HCT-15 = tested on: HCT-15
786-0 = tested on: 786-0
K562 = tested on: K562
HT-29 = tested on: HT-29
BT-549 = tested on: BT-549
NCI-H23 = tested on: NCI-H23
HOP-92 = tested on: HOP-92
OVCAR-4 = tested on: OVCAR-4
SN12C = tested on: SN12C
UACC-257 = tested on: UACC-257
SK-MEL-2 = tested on: SK-MEL-2
CCRF-CEM = tested on: CCRF-CEM
OVCAR-3 = tested on: OVCAR-3
HCC 2998 = tested on: HCC 2998
HOP-62 = tested on: HOP-62
NCI-H522 = tested on: NCI-H522
NCI-H460 = tested on: NCI-H460
TK-10 = tested on: TK-10
HCT-116 = tested on: HCT-116
T47D = tested on: T47D
OVCAR-5 = tested on: OVCAR-5
MDA-MB-435 = tested on: MDA-MB-435
LOX IMVI = tested on: LOX IMVI
SK-OV-3 = tested on: SK-OV-3
RPMI-8226 = tested on: RPMI-8226
SF-268 = tested on: SF-268
PC-3 = tested on: PC-3
COLO 205 = tested on: COLO 205
MDA-N = tested on: MDA-N
SNB-75 = tested on: SNB-75
UO-31 = tested on: UO-31
NCI-H226 = tested on: NCI-H226
ACHN = tested on: ACHN
DU-145 = tested on: DU-145
MCF7 = tested on: MCF7

With `Cc1cc2c(c(/C=N/c3ccc([N+](=O)[O-])cc3)c1)OC1(C=C2)Oc2ccccc2C(=O)N1C` (configuration not stated) the GI50 (UACC-62) was 17.2 µM (inactive), the GI50 (U-251) was 21.7 µM (inactive) and the GI50 (SNB-19) was 34.4 µM (inactive). The GI50 (EKVX) was 13.6 µM (inactive), the GI50 (SK-MEL-5) was 31.8 µM (inactive) and the GI50 (OVCAR-8) was 16.1 µM (inactive). The GI50 (SK-MEL-28) was 19.9 µM (inactive), the GI50 (IGROV-1) was 18.8 µM (inactive) and the GI50 (A498) was 16.8 µM (inactive). The GI50 (RXF 393) was 18.5 µM (inactive), the GI50 (MDA-MB-231) was 16.9 µM (inactive) and the GI50 (SR) was 12.3 µM (inactive). The GI50 (Hs-578T) was 27.2 µM (inactive), the GI50 (HL-60) was 23.2 µM (inactive) and the GI50 (KM12) was 20 µM (inactive). For the same compound, the GI50 (NCI/ADR-RES) was 18.9 µM (inactive), the GI50 (A549) was 28.2 µM (inactive) and the GI50 (CAKI-1) was 13.8 µM (inactive). For the same compound, the GI50 (M14) was 23.3 µM (inactive), the GI50 (MOLT-4) was 4.94 µM (inactive) and the GI50 (SW-620) was 29.1 µM (inactive). For the same compound, the GI50 (SF-295) was 24.4 µM (inactive), the GI50 (HCT-15) was 17.9 µM and the GI50 (786-0) was 22.6 µM (inactive). The GI50 (K562) was 19.2 µM (inactive), the GI50 (HT-29) was 18.2 µM (inactive) and the GI50 (BT-549) was 19.6 µM (inactive). The GI50 (NCI-H23) was 18.2 µM (inactive), the GI50 (HOP-92) was 24.1 µM (inactive) and the GI50 (OVCAR-4) was 22.2 µM (inactive). For the same compound, the GI50 (SN12C) was 20.5 µM (inactive), the GI50 (UACC-257) was 21.2 µM (inactive) and the GI50 (SK-MEL-2) was 24.8 µM (inactive). For the same compound, the GI50 (CCRF-CEM) was 12.2 µM (inactive), the GI50 (OVCAR-3) was 29.4 µM (inactive) and the GI50 (HCC 2998) was 19.8 µM (inactive). The GI50 (HOP-62) was 29.9 µM (inactive), the GI50 (NCI-H522) was 21.5 µM (inactive) and the GI50 (NCI-H460) was 21.8 µM (inactive). For the same compound, the GI50 (TK-10) was 24.5 µM (inactive), the GI50 (HCT-116) was 14.6 µM (inactive) and the GI50 (T47D) was 7.89 µM (inactive). The GI50 (OVCAR-5) was 28.6 µM (inactive), the GI50 (MDA-MB-435) was 31.2 µM (inactive) and the GI50 (LOX IMVI) was 12.8 µM (inactive). The GI50 (SK-OV-3) was 22.2 µM (inactive), the GI50 (RPMI-8226) was 19.3 µM (inactive) and the GI50 (SF-268) was 18.7 µM (inactive). The GI50 (PC-3) was 18 µM (inactive), the GI50 (COLO 205) was 20 µM (inactive) and the GI50 (MDA-N) was 24.8 µM (inactive). For the same compound, the GI50 (SNB-75) was 14.6 µM (inactive), the GI50 (UO-31) was 13.5 µM (inactive) and the GI50 (NCI-H226) was 16 µM (inactive). The GI50 (ACHN) was 14.8 µM (inactive), the GI50 (DU-145) was 22.3 µM (inactive) and the GI50 (MCF7) was 17.6 µM (inactive).
